This passage reports EC50 and IC50 results from patent publication US20240400560A1, “BICYCLIC HETEROCYCLIC DERIVATIVE HAVING VIRAL GROWTH INHIBITORY ACTIVITY AND PHARMACEUTICAL COMPOSITION CONTAINING SAME” (Shionogi & Co., Ltd., priority 2021, published 2024).

One experiment relates to SARS-CoV-2. The experiment can be described thus: Inhibitory activity of cytopathic effect (CPE) in HEK293T/ACE2-TMPRSS2 cells. Format: cell-based. The conditions noted are these: Severe acute respiratory syndrome coronavirus 2, HEK-293T, 72 h; 50% SARS-CoV-2 infected cell death inhibitory concentration; HEK293T/ACE2-TMPRSS2 cells; CellTiter-Glo 2.0 after 3 days culture; read-out: EC50.
Consider `[2H]C([2H])([2H])O[C@@H]1CCN(c2cc3c(c(OC)n2)c(=O)n(-c2cncc(Cl)c2C)c(=O)n3-c2ccc(F)c(Cl)c2)C1` (atropisomer, axis not shown) [Compound I-0947], for which the EC50 was 6.34 nM.

A further experiment deals with SARS-CoV-2 3CL protease (Severe acute respiratory syndrome coronavirus 2, UniProt P0DTD1). The experiment can be described thus: Inhibitory activity test against SARS-CoV-2 3CL proteases. Conditions: IC50 (50% SARS-CoV-2 3CL protease inhibitory concentration). The format is biochemical.
On to `O=c1[nH]cccc1Cn1c(=O)c2ccc(N3[C@@H]4CC[C@H]3CNC4)cc2n(Cc2cc(F)c(F)c(F)c2)c1=O` [Compound I-0379], for which the IC50 is under 100 nM.

Turning to `O=c1[nH]cccc1Cn1c(=O)c2ccc(N3[C@@H]4CNC[C@H]3COC4)cc2n(Cc2cc(F)c(F)c(F)c2)c1=O` [Compound I-0381], the IC50 was under 100 nM.

With `COc1nc(N2CC[C@H](F)C2)cc2c1c(=O)n(Cc1ncn(C)n1)c(=O)n2Cc1cc(F)c(F)c(F)c1` [Compound I-0446], the IC50 is under 100 nM.

`COc1nc(N2CC[C@@H](F)C2)cc2c1c(=O)n(Cc1ncn(C)n1)c(=O)n2Cc1cc(F)c(F)c(F)c1` [Compound I-0453] showed an IC50 of 2.5 nM.

In the case of `COc1nc(C2=CC3CCC(C2)N3)cc2c1c(=O)n(-c1cncc(Cl)c1)c(=O)n2Cc1cc(F)c(F)c(F)c1` (stereo not drawn) [Compound I-0464], the IC50 stood at 11 nM.

Consider `COc1nc(N2[C@@H]3CC[C@H]2CNC3)cc2c1c(=O)n(-c1cncc(Cl)c1)c(=O)n2Cc1cc(F)c(F)c(F)c1` [Compound I-0541], for which the IC50 was determined as 3.4 nM.

The same experiment, now with this note: read-out: IC50 (50% SARS-CoV-2 3CL protease inhibitory concentration).
Consider `[2H]C([2H])([2H])O[C@@H]1CCN(c2cc3c(c(OC)n2)c(=O)n(-c2cncc(Cl)c2C)c(=O)n3-c2ccc(F)c(Cl)c2)C1` (atropisomer, axis not shown) [Compound I-0947], for which the IC50 came to 2.3 nM.

Take `NC(=O)c1ccc(Cl)c(-c2ccc3c(=O)n(Cc4ccc[nH]c4=O)c(=O)n(Cc4cc(F)c(F)c(F)c4)c3c2)c1` [Compound I-0296]: the IC50 was under 100 nM.

As for `NC(=O)c1ccc(Cl)c(-c2nc3c(cc2F)c(=O)n(Cc2ccc[nH]c2=O)c(=O)n3Cc2cc(F)c(F)c(F)c2)c1` [Compound I-0301], the IC50 stood at 98 nM.

As for `O=c1[nH]cccc1Cn1c(=O)c2c(n(Cc3cc(F)c(F)c(F)c3)c1=O)CCCC2` [Compound I-0325], the IC50 was 450 nM.

Consider `Cn1cnc(Cn2c(=O)c3c4c(c(-c5cc6c(cc5Cl)NC(=O)C6)cc3n(Cc3cc(F)c(F)c(F)c3)c2=O)CCO4)n1` [Compound I-0353], for which the IC50 was 0.45 nM.

In the case of `COc1cc(-c2cc(CN=S(C)(C)=O)ccc2Cl)cc2c1c(=O)n(Cc1ncn(C)n1)c(=O)n2Cc1cc(F)c(F)c(F)c1` [Compound I-0363], the IC50 stood at 35 nM.

For `O=c1[nH]cccc1Cn1c(=O)c2ccc(N3C[C@@H]4CN[C@@H](C4)C3)cc2n(Cc2cc(F)c(F)c(F)c2)c1=O` [Compound I-0378], the IC50 was under 100 nM.

For `O=c1[nH]cccc1Cn1c(=O)c2ccc(N3C[C@@H]4CC[C@H]3CN4)cc2n(Cc2cc(F)c(F)c(F)c2)c1=O` [Compound I-0380], the IC50 amounted to 14 nM.

Turning to `COc1nc(N2CC[C@@H](O)C2)cc2c1c(=O)n(Cc1ncn(C)n1)c(=O)n2Cc1cc(F)c(F)c(Cl)c1` [Compound I-0388], the IC50 turned out to be 20 nM.

In the case of `COc1nc(N2C[C@H]3C[C@@H]2CN3)cc2c1c(=O)n(Cc1ncn(C)n1)c(=O)n2Cc1cc(F)c(F)c(F)c1` [Compound I-0389], the IC50 was 1.9 nM.

As for `Cn1cnc(Cn2c(=O)c3ccc(N4C[C@H]5C[C@@H]4CN5)cc3n(Cc3cc(F)c(F)c(F)c3)c2=O)n1` [Compound I-0393], the IC50 is under 100 nM.

As to `COc1cc(N2C[C@H]3C[C@@H]2CN3)cc2c1c(=O)n(Cc1ncn(C)n1)c(=O)n2Cc1cc(F)c(F)c(F)c1` [Compound I-0395], the IC50 was 2.2 nM.

`COc1cc(N2C[C@H]3C[C@@H]2CN3)cc2c1c(=O)n(-c1cncc(Cl)c1)c(=O)n2Cc1cc(F)c(F)c(F)c1` [Compound I-0396]: the IC50 was found to be 1.3 nM.

As to `Cn1cnc(Cn2c(=O)c3c4c(c(-c5cc(C#N)ccc5Cl)cc3n(Cc3cc(F)c(F)c(F)c3)c2=O)CCO4)n1` [Compound I-0414], the IC50 stood at 1.5 nM.

On to `Cn1cnc(Cn2c(=O)c3c4c(c(N5CC[C@@H](O)C5)cc3n(Cc3cc(F)c(F)c(F)c3)c2=O)CCO4)n1` [Compound I-0415], for which the IC50 is under 100 nM.

In the case of `Cn1cnc(Cn2c(=O)c3c4c(c(N5C[C@H]6C[C@@H]5CN6)cc3n(Cc3cc(F)c(F)c(F)c3)c2=O)CCO4)n1` [Compound I-0429], the IC50 was under 100 nM.

As to `N#Cc1ccc(Cl)c(-c2cc3c(c(=O)[nH]2)c(=O)n(-c2cncc(Cl)c2)c(=O)n3Cc2cc(F)c(F)c(F)c2)c1` [Compound I-0431], the IC50 worked out at 11 nM.

Take `Cn1c(-c2cc(C#N)ccc2Cl)cc2c(c1=O)c(=O)n(-c1cncc(Cl)c1)c(=O)n2Cc1cc(F)c(F)c(F)c1` [Compound I-0435]: the IC50 was 1 nM.

For the compound `CCn1c(-c2cc(C#N)ccc2Cl)cc2c(c1=O)c(=O)n(-c1cncc(Cl)c1)c(=O)n2Cc1cc(F)c(F)c(F)c1` [Compound I-0437], the IC50 was 1.3 nM.

As for `CC1COc2c1c(-c1cc(C#N)ccc1Cl)cc1c2c(=O)n(Cc2ncn(C)n2)c(=O)n1Cc1cc(F)c(F)c(F)c1` (stereo not drawn) [Compound I-0438], the IC50 is 3.5 nM.

In the case of `CC1Cc2c(-c3cc(C#N)ccc3Cl)cc3c(c2O1)c(=O)n(Cc1ncn(C)n1)c(=O)n3Cc1cc(F)c(F)c(F)c1` (stereo not drawn) [Compound I-0439], the IC50 was 4.7 nM.

Consider `CC1COc2c1c(N1CC[C@@H](O)C1)cc1c2c(=O)n(Cc2ncn(C)n2)c(=O)n1Cc1cc(F)c(F)c(F)c1` (stereo partly drawn) [Compound I-0440], for which the IC50 was 10 nM.

Consider `N#Cc1ccc(Cl)c(-c2cc3c(c4c2CCO4)c(=O)n(Cc2ncccn2)c(=O)n3Cc2cc(F)c(F)c(F)c2)c1` [Compound I-0442], for which the IC50 was under 100 nM.

As to `CNC(=O)Cn1c(=O)c2c3c(c(-c4cc(C#N)ccc4Cl)cc2n(Cc2cc(F)c(F)c(F)c2)c1=O)CCO3` [Compound I-0443], the IC50 is under 100 nM.

As to `COc1nc(N2CC[C@@H](C(N)=O)C2)cc2c1c(=O)n(Cc1ncn(C)n1)c(=O)n2Cc1cc(F)c(F)c(Cl)c1` [Compound I-0445], the IC50 came out at 22 nM.

Regarding `COc1nc(N2CC[C@@H](OC)C2)cc2c1c(=O)n(Cc1ncn(C)n1)c(=O)n2Cc1cc(F)c(F)c(F)c1` [Compound I-0449], the IC50 stood at 37 nM.

Turning to `COc1nc(N2CCC(C#N)C2)cc2c1c(=O)n(Cc1ncn(C)n1)c(=O)n2Cc1cc(F)c(F)c(F)c1` (stereo not drawn) [Compound I-0451], the IC50 was under 100 nM.

`COc1nc(N2C[C@H]3C[C@@H]2CN3)cc2c1c(=O)n(-c1cncc(Cl)c1)c(=O)n2Cc1cc(F)c(F)c(F)c1` [Compound I-0459]: the IC50 is under 100 nM.

With `Cn1cnc(Cn2c(=O)c3c4c(c(-c5cc(C#N)ccc5Cl)cc3n(Cc3cc(F)c(F)c(F)c3)c2=O)CCCO4)n1` [Compound I-0460], the IC50 worked out at 9.2 nM.

Turning to `[2H]C1([2H])N(c2cc3c(c(OC)n2)c(=O)n(Cc2ncn(C)n2)c(=O)n3Cc2cc(F)c(F)c(F)c2)C([2H])([2H])C([2H])([2H])C1([2H])[2H]` [Compound I-0466], the IC50 was under 100 nM.

For `Cn1cnc(Cn2c(=O)c3c4c(c(-c5cc(N=S(C)(C)=O)ccc5Cl)cc3n(Cc3cc(F)c(F)c(F)c3)c2=O)CCO4)n1` [Compound I-0472], the IC50 is under 100 nM.

As for `Cn1cnc(Cn2c(=O)c3c4occc4c(-c4cc(C#N)ccc4Cl)cc3n(Cc3cc(F)c(F)c(F)c3)c2=O)n1` [Compound I-0473], the IC50 turned out to be 4.1 nM.

Consider `COc1nc(N2CC[C@@H](F)C2)cc2c1c(=O)n(Cc1ncn(C)n1)c(=O)n2Cc1cc(F)c(F)c(Cl)c1` [Compound I-0484], for which the IC50 is under 100 nM.

For the compound `Cn1cnc(Cn2c(=O)c3c(F)c(Cl)c(-c4cc5c(cc4Cl)NC(=O)C5)cc3n(Cc3cc(F)c(F)c(Cl)c3)c2=O)n1` [Compound I-0492], the IC50 was under 100 nM.

On to `COc1nc2cc(-c3cc(OC)c4c(=O)n(Cc5ncn(C)n5)c(=O)n(Cc5cc(F)c(F)c(F)c5)c4c3)c(Cl)cc2[nH]1` [Compound I-0501], for which the IC50 came out at 6.4 nM.

With `N#Cc1ccc(Cl)c(-c2cc3c(c4c2CCO4)c(=O)n(Cc2cc(F)c[nH]c2=O)c(=O)n3Cc2cc(F)c(F)c(F)c2)c1` [Compound I-0504], the IC50 was under 100 nM.

Consider `Cn1cnc(Cn2c(=O)c3c(F)c(Cl)c(-c4cc(C#N)ccc4Cl)cc3n(Cc3cc(F)c(F)c(Cl)c3)c2=O)n1` [Compound I-0506], for which the IC50 is under 100 nM.

Take `COc1nc(N2CC[C@@H](C(N)=O)C2)cc2c1c(=O)n(-c1cncc(Cl)c1)c(=O)n2Cc1cc(F)c(F)c(F)c1` [Compound I-0511]: the IC50 was under 100 nM.

`COc1cc(-c2cnc(N)cc2Cl)cc2c1c(=O)n(Cc1ncn(C)n1)c(=O)n2Cc1cc(F)c(F)c(F)c1` [Compound I-0514]: the IC50 was under 100 nM.

As for `COc1nc2c(=O)n(Cc3ncn(C)n3)c(=O)n(Cc3cc(F)c(F)c(F)c3)c2cc1-c1cc(C#N)ccc1Cl` [Compound I-0516], the IC50 came to 15 nM.

For the compound `COc1cc(-c2cc(C(O)C(F)(F)F)ccc2Cl)cc2c1c(=O)n(Cc1ncn(C)n1)c(=O)n2Cc1cc(F)c(F)c(F)c1` (stereo not drawn) [Compound I-0517], the IC50 was under 100 nM.

For the compound `COc1ccc(Cl)c(-c2cc(OC)c3c(=O)n(Cc4ncn(C)n4)c(=O)n(Cc4cc(F)c(F)c(F)c4)c3c2)c1` [Compound I-0523], the IC50 stood at 32 nM.

Turning to `COc1nc(N2C[C@@H]3CC[C@H]2CN3)cc2c1c(=O)n(-c1cncc(Cl)c1)c(=O)n2Cc1cc(F)c(F)c(Cl)c1` [Compound I-0540], the IC50 was under 100 nM.

On to `Cn1cnc(Cn2c(=O)c3c(F)c(I)c(-c4cc(C#N)ccc4Cl)cc3n(Cc3cc(F)c(F)c(Cl)c3)c2=O)n1` [Compound I-0542], for which the IC50 is under 100 nM.

Consider `CC(C)Nc1cc2c(c(=O)n(Cc3ncn(C)n3)c(=O)n2Cc2cc(F)c(F)c(F)c2)c2ncn(C)c12` [Compound I-0553], for which the IC50 is 100 to 1000 nM.

As for `Cn1cnc(Cn2c(=O)c3c(cc(-c4cc(C#N)ccc4Cl)n4cnnc34)n(Cc3cc(F)c(F)c(F)c3)c2=O)n1` [Compound I-0644], the IC50 is under 100 nM.

Take `Cn1cnc(Cn2c(=O)c3nnc(N4CC[C@@H](F)C4)cc3n(Cc3cc(F)c(F)c(F)c3)c2=O)n1` [Compound I-0935]: the IC50 is 1000 to 10000 nM.
